In patent US12247032B2, “Substituted pyrazolo[1,5-a]pyrimidines as inhibitors of JAK kinases” (Genentech, Inc., priority 2019, dated 2025):
Where two headings read alike, the source gives them in different places.

Experiments:
[1] = tested on: JAK2 pathway (P-STAT5 in TF-1 human erythroleukemia cells + EPO); assay: P-STAT5 TF-1+Erythropoietin (EPO) assay; assay type: cell-based; conditions: TF-1 cells, 30 minutes compound, EPO 30 min, IC50 by four-parameter fit, read-out: Cellular (JAK2 PSTAT5 TF1 + EPO)
Experimental: (§1) TF-1 human erythroleukemia cells (ATCC®; Manassas, VA; Catalog No. CRL-2003™) were grown in Roswell Park Memorial Institute (RPMI) medium supplemented with 10% heat-inactivated fetal bovine serum (FBS), 2 ng/mL granulocyte-macrophage colony-stimulating factor, 1× non-essential amino acids (NEAA), and 1 mM sodium pyruvate. The day before the assay, the cultures were transferred to Opti-MEM™, 1×NEAA, 1 mM sodium pyruvate, and 0.5% charcoal-stripped FBS (starve medium). Inhibitor stock solutions (5 mM in DMSO) were serially diluted 1:2 in DMSO to generate a 10-point concentration titration (at 500× test concentration), which was further diluted by a 50-fold dilution in Assay Medium (RPMI containing 1×NEAA and 1 mM sodium pyruvate) to generate a 10× concentration titration (in 2% DMSO). The cells (300,000 cells/well in 35 μL of Assay Medium) were seeded in 384-well Greiner plates. Diluted inhibitor at 10× concentration (5 μL) was added to the cells and the plates were incubated for 30 minutes at 37° C. in a humidified incubator. Cells were stimulated with the human recombinant cytokine at the respective EC90 concentrations, as previously determined for each individual lot. For the phosphorylated signal transducer and activator of transcription 6 (P-STAT6) TF-1+Interleukin-13 (IL-13) assay, 10 μL of 250 ng/mL IL-13 (R&D Systems; Minneapolis, MN) was added to the cells, which were then incubated for 10 minutes at 37° C. For the P-STAT5 TF-1+Erythropoietin (EPO) assay, 10 μL of 110 IU/mL EPO (Gibco Life Technologies, Catalog No. PHC2054) was added to the cells, which were then incubated for 30 min at 37° C. For both assays, the incubation was followed by addition to the cells of 5 μL of ice-cold 10× cell lysis buffer (Cell Signaling Technologies; Danvers, MA; Catalog No. 9803S) containing 1 mM phenylmethylsulfonyl fluoride (PMSF). Assay plates were frozen at −80° C. for a minimum of 1 hour. In the IL-13 assay, P-STAT6 was measured by coating goat anti-rabbit (GAR) plates (Meso Scale Discovery [MSD]; Rockville, MD; Catalog No. MSD L21RA-1) with rabbit anti-human total STAT6 antibody (Cell Signaling Technologies; Catalog No. 9362S), incubating the cell lysates in the coated plates overnight at 4° C., and then detecting with mouse anti-P-STAT6 (Tyr641) Clone 16E12 antibody (MilliporeSigma; Burlington, MA; Catalog No. 05-590, custom labeled by MSD with SULFO-tag) using standard MSD plate processing, washing, and detection protocols. In the EPO assay, P-STAT5 was detected using the phospho-STAT5a,b Whole Cell Lysate Kit (MSD; Catalog No. K150IGD-1). The electrochemiluminescence (ECL) signal of wells was read on the MESO SECTOR S600 (MSD) reader.
(§2) Data analysis was performed by subtracting the negative control (cytokine stimulated and 20 μM control inhibitor-treated cells) mean ECL value from the ECL value of all wells, determining percent of control for test compound well ECL values relative to the positive control (cytokine stimulated and DMSO-treated cells) mean ECL value, and determining the IC50 for test compounds with a four-parameter logistic fit model as shown in Equation 4.

[2] = tested on: JAK1 pathway (P-STAT6 in TF-1 human erythroleukemia cells + IL-13); assay: P-STAT6 TF-1+Interleukin-13 (IL-13) assay; assay type: cell-based; conditions: TF-1 cells, 30 minutes compound, IL-13 10 minutes, IC50 by four-parameter fit, read-out: Cellular PSTAT6 TF-1 + IL13
Experimental: as §1, §2

O=C(Nc1cn(Cc2nnn(C3CCNC3)n2)nc1-c1cc(OC(F)F)ccc1OC(F)F)c1cnn2cccnc12 (single isomer, unassigned) [Example 27, N-[3-[2,5-bis(difluoromethoxy)phenyl]-1-[(2-pyrrolidin-3-yltetrazol-5-yl)methyl]pyrazol-4-yl]pyrazolo[1,5-a]pyrimidine-3-carboxamide]
IC50 ([1]; Homo sapiens, TF-1, 0.5 h): 17 nM
IC50 ([2]; Homo sapiens, TF-1, 0.5 h): 13 nM

O=C(Nc1cn(Cc2nnn(C3CCNC3)n2)nc1-c1cc(OC(F)F)ccc1OC(F)F)c1cnn2cccnc12 (single isomer, unassigned) [Example 28, N-[3-[2,5-bis(difluoromethoxy)phenyl]-1-[(2-pyrrolidin-3-yltetrazol-5-yl)methyl]pyrazol-4-yl]pyrazolo[1,5-a]pyrimidine-3-carboxamide]
IC50 [1]: 19 nM
IC50 [2]: 7.1 nM

CN1CCC(N2CC(n3nnc(Cn4cc(NC(=O)c5cnn6cccnc56)c(-c5cc(OC(F)F)ccc5OC(F)F)n4)n3)C2)C1 (single isomer, unassigned) [Example 72, N-[3-[2,5-bis(difluoromethoxy)phenyl]-1-[[2-[1-(1-methylpyrrolidin-3-yl)azetidin-3-yl]tetrazol-5-yl]methyl]pyrazol-4-yl]pyrazolo[1,5-a]pyrimidine-3-carboxamide]
IC50 ([1]; Homo sapiens, TF-1, 0.5 h): 51 nM
IC50 ([2]; Homo sapiens, TF-1, 0.5 h): 39 nM

CN1CC(n2nnc(Cn3cc(NC(=O)c4cnn5cccnc45)c(-c4cc(Cl)ccc4OC(F)F)n3)n2)C1 [Example 7, N-[3-[5-chloro-2-(difluoromethoxy)phenyl]-1-[[2-(1-methylazetidin-3-yl)tetrazol-5-yl]methyl]pyrazol-4-yl]pyrazolo[1,5-a]pyrimidine-3-carboxamide]
IC50 ([1]; Homo sapiens, TF-1, 0.5 h): 13 nM
IC50 ([2]; Homo sapiens, TF-1, 0.5 h): 5 nM

O=C(Nc1cn(Cc2nnn(C3CNC3)n2)nc1-c1cc(Cl)ccc1OC(F)F)c1cnn2cccnc12 [Example 8, N-[1-[[2-(azetidin-3-yl)tetrazol-5-yl]methyl]-3-[5-chloro-2-(difluoromethoxy)phenyl]pyrazol-4-yl]pyrazolo[1,5-a]pyrimidine-3-carboxamide]
IC50 ([1]; Homo sapiens, TF-1, 0.5 h): 13 nM
IC50 ([2]; Homo sapiens, TF-1, 0.5 h): 8.4 nM

CN1CC(n2nnc(Cn3cc(NC(=O)c4cnn5cccnc45)c(-c4cc(OC(F)F)ccc4OC(F)F)n3)n2)C1 [Example 10, N-[3-[2,5-bis(difluoromethoxy)phenyl]-1-[[2-(1-methylazetidin-3-yl)tetrazol-5-yl]methyl]pyrazol-4-yl]pyrazolo[1,5-a]pyrimidine-3-carboxamide]
IC50 ([1]; Homo sapiens, TF-1, 0.5 h): 5.1 nM
IC50 ([2]; Homo sapiens, TF-1, 0.5 h): 4 nM

O=C(Nc1cn(Cc2nnn(C3CNC3)n2)nc1-c1cc(OC(F)F)ccc1OC(F)F)c1cnn2cccnc12 [Example 11, N-[1-[[2-(azetidin-3-yl)tetrazol-5-yl]methyl]-3-[2,5-bis(difluoromethoxy)phenyl]pyrazol-4-yl]pyrazolo[1,5-a]pyrimidine-3-carboxamide]
IC50 ([1]; Homo sapiens, TF-1, 0.5 h): 10 nM
IC50 ([2]; Homo sapiens, TF-1, 0.5 h): 9.5 nM

O=C(Nc1cn(Cc2nnnn2C2CNC2)nc1-c1cc(OC(F)F)ccc1OC(F)F)c1cnn2cccnc12 [Example 12, N-[1-[[1-(azetidin-3-yl)tetrazol-5-yl]methyl]-3-[2,5-bis(difluoromethoxy)phenyl]pyrazol-4-yl]pyrazolo[1,5-a]pyrimidine-3-carboxamide]
IC50 ([1]; Homo sapiens, TF-1, 0.5 h): 51 nM
IC50 ([2]; Homo sapiens, TF-1, 0.5 h): 22 nM

NCCn1nnc(Cn2cc(NC(=O)c3cnn4cccnc34)c(-c3cc(OC(F)F)ccc3OC(F)F)n2)n1 [Example 13, N-[1-[[2-(2-aminoethyl)tetrazol-5-yl]methyl]-3-[2,5-bis(difluoromethoxy)phenyl]pyrazol-4-yl]pyrazolo[1,5-a]pyrimidine-3-carboxamide]
IC50 ([1]; Homo sapiens, TF-1, 0.5 h): 10 nM
IC50 ([2]; Homo sapiens, TF-1, 0.5 h): 18 nM

NCCn1nnnc1Cn1cc(NC(=O)c2cnn3cccnc23)c(-c2cc(OC(F)F)ccc2OC(F)F)n1 [Example 14, N-[1-[[1-(2-aminoethyl)tetrazol-5-yl]methyl]-3-[2,5-bis(difluoromethoxy)phenyl]pyrazol-4-yl]pyrazolo[1,5-a]pyrimidine-3-carboxamide]
IC50 ([1]; Homo sapiens, TF-1, 0.5 h): 46 nM
IC50 ([2]; Homo sapiens, TF-1, 0.5 h): 45 nM

CN1CC(n2nnnc2Cn2cc(NC(=O)c3cnn4cccnc34)c(-c3cc(Cl)ccc3OC(F)F)n2)C1 [Example 15, N-[3-[5-chloro-2-(difluoromethoxy)phenyl]-1-[[1-(1-methylazetidin-3-yl)tetrazol-5-yl]methyl]pyrazol-4-yl]pyrazolo[1,5-a]pyrimidine-3-carboxamide]
IC50 ([1]; Homo sapiens, TF-1, 0.5 h): 7.2 nM
IC50 ([2]; Homo sapiens, TF-1, 0.5 h): 3.4 nM

CN(C)CCn1nnc(Cn2cc(NC(=O)c3cnn4cccnc34)c(-c3cc(OC(F)F)ccc3OC(F)F)n2)n1 [Example 16, N-[3-[2,5-bis(difluoromethoxy)phenyl]-1-[[2-[2-(dimethylamino)ethyl]tetrazol-5-yl]methyl]pyrazol-4-yl]pyrazolo[1,5-a]pyrimidine-3-carboxamide]
IC50 ([1]; Homo sapiens, TF-1, 0.5 h): 12 nM
IC50 ([2]; Homo sapiens, TF-1, 0.5 h): 12 nM

CN(C)CCn1nnnc1Cn1cc(NC(=O)c2cnn3cccnc23)c(-c2cc(OC(F)F)ccc2OC(F)F)n1 [Example 17, N-[3-[2,5-bis(difluoromethoxy)phenyl]-1-[[1-[2-(dimethylamino)ethyl]tetrazol-5-yl]methyl]pyrazol-4-yl]pyrazolo[1,5-a]pyrimidine-3-carboxamide]
IC50 ([1]; Homo sapiens, TF-1, 0.5 h): 9.7 nM
IC50 ([2]; Homo sapiens, TF-1, 0.5 h): 2.7 nM

O=C(Nc1cn(Cc2nnn(C3CCNCC3)n2)nc1-c1cc(OC(F)F)ccc1OC(F)F)c1cnn2cccnc12 [Example 18, N-[3-[2,5-bis(difluoromethoxy)phenyl]-1-[[2-(4-piperidyl)tetrazol-5-yl]methyl]pyrazol-4-yl]pyrazolo[1,5-a]pyrimidine-3-carboxamide]
IC50 ([1]; Homo sapiens, TF-1, 0.5 h): 19 nM
IC50 ([2]; Homo sapiens, TF-1, 0.5 h): 20 nM

CNCCn1nnnc1Cn1cc(NC(=O)c2cnn3cccnc23)c(-c2cc(OC(F)F)ccc2OC(F)F)n1 [Example 19, N-[3-[2,5-bis(difluoromethoxy)phenyl]-1-[[1-[2-(methylamino)ethyl]tetrazol-5-yl]methyl]pyrazol-4-yl]pyrazolo[1,5-a]pyrimidine-3-carboxamide]
IC50 ([1]; Homo sapiens, TF-1, 0.5 h): 21 nM
IC50 ([2]; Homo sapiens, TF-1, 0.5 h): 7 nM

CNCCn1nnc(Cn2cc(NC(=O)c3cnn4cccnc34)c(-c3cc(OC(F)F)ccc3OC(F)F)n2)n1 [Example 20, N-[3-[2,5-bis(difluoromethoxy)phenyl]-1-[[2-[2-(methylamino)ethyl]tetrazol-5-yl]methyl]pyrazol-4-yl]pyrazolo[1,5-a]pyrimidine-3-carboxamide]
IC50 ([1]; Homo sapiens, TF-1, 0.5 h): 15 nM
IC50 ([2]; Homo sapiens, TF-1, 0.5 h): 45 nM

CN(C)CCN1CC(n2nnc(Cn3cc(NC(=O)c4cnn5cccnc45)c(-c4cc(OC(F)F)ccc4OC(F)F)n3)n2)C1 [Example 21, N-[3-[2,5-bis(difluoromethoxy)phenyl]-1-[[2-[1-[2-(dimethylamino)ethyl]azetidin-3-yl]tetrazol-5-yl]methyl]pyrazol-4-yl]pyrazolo[1,5-a]pyrimidine-3-carboxamide]
IC50 ([1]; Homo sapiens, TF-1, 0.5 h): 32 nM
IC50 ([2]; Homo sapiens, TF-1, 0.5 h): 40 nM

CN1CCC(n2nnc(Cn3cc(NC(=O)c4cnn5cccnc45)c(-c4cc(OC(F)F)ccc4OC(F)F)n3)n2)CC1 [Example 22]
IC50 ([1]; Homo sapiens, TF-1, 0.5 h): 18 nM
IC50 ([2]; Homo sapiens, TF-1, 0.5 h): 4.8 nM

CN1CC(n2nnc(Cn3cc(NC(=O)c4cnn5cccnc45)c(-c4cc(C5CC5)ccc4OC(F)F)n3)n2)C1 [Example 23, N-[3-[5-cyclopropyl-2-(difluoromethoxy)phenyl]-1-[[2-(1-methylazetidin-3-yl)tetrazol-5-yl]methyl]pyrazol-4-yl]pyrazolo[1,5-a]pyrimidine-3-carboxamide]
IC50 ([1]; Homo sapiens, TF-1, 0.5 h): 8.2 nM
IC50 ([2]; Homo sapiens, TF-1, 0.5 h): 7.4 nM
